The values below come from ChEMBL document CHEMBL5214926, “Recent contribution of medicinally active 2-aminothiophenes: A privileged scaffold for drug discovery” (Eur J Med Chem, 2022).

Assay [1] relates to Leishmania amazonensis. Kind of assay: Anti-promastigote activity against Leishmania amazonensis (IFLA/BR/67/PH8) assessed as promastigote growth inhibition incubated for 72 hrs by microscopic analysis. The class given is functional, organism-based.
The test system of assay [2] is Staphylococcus aureus. Briefly: Antibacterial activity against Staphylococcus aureus NCIM 2010 assessed as bacterial growth inhibition incubated for 8 hrs by absorbance based assay. Type of assay: functional.
The test system of assay [3] is Staphylococcus aureus. Kind of assay: Antibacterial activity against Staphylococcus aureus NCIM 2010 assessed as reduction in bacterial growth incubated for 8 hrs by absorbance based assay. The class given is functional, organism-based. The following applies: NCIM 2010, 8 h.
Assay [4] concerns Bacillus subtilis. Kind of assay: Antibacterial activity against Bacillus subtilis NCIM 2079 assessed as reduction in bacterial growth incubated for 8 hrs by absorbance based assay. The class given is functional, organism-based. Conditions: NCIM 2079, 8 h.
In assay [5] the test system is Escherichia coli. Kind of assay: Antibacterial activity against Escherichia coli NCIM 2688 assessed as bacterial growth inhibition incubated for 8 hrs by absorbance based assay. The class given is functional.
Assay [6] relates to Bacillus subtilis. Briefly: Antibacterial activity against Bacillus subtilis NCIM 2079 assessed as bacterial growth inhibition incubated for 8 hrs by absorbance based assay. Type of assay: functional.
In assay [7] the test system is Pseudomonas aeruginosa. Briefly: Antibacterial activity against Pseudomonas aeruginosa NCIM 2036 assessed as bacterial growth inhibition incubated for 8 hrs by absorbance based assay. Type of assay: functional.
Assay [8] relates to NCI-H460. Briefly: Antiproliferative activity against human NCI-H460 cells assessed as cell growth inhibition by MTT assay. Background: Tetrazolium assays rely on reduction of a dye to a coloured formazan, in cell work by metabolically active cells.
The test system of assay [9] is SMMC-7721. Kind of assay: Antiproliferative activity against human SMMC-7721 cells assessed as cell growth inhibition by MTT assay.
The nature of assay [10]: Antiproliferative activity against human U-87 MG cells assessed as cell growth inhibition by MTT assay. The class given is functional, cell-based, U-87MG ATCC.
Assay [11] relates to HT-29. Kind of assay: cells. The following applies: Homo sapiens.
Description: Antiproliferative activity against human HT-29 cells assessed as cell growth inhibition by MTT assay
The test system of assay [12] is MKN-45. Briefly: Antiproliferative activity against human MKN-45 cells assessed as cell growth inhibition by MTT assay.
Assay [13] has as its system A549. Briefly: cells. The following applies: Homo sapiens.
Description: Antiproliferative activity against human A549 cells assessed as cell growth inhibition by MTT assay
A short description of assay [14]: Inhibition of CaCC (unknown origin) current potentiation. More on the design: species or system Homo sapiens.
Assay [15] relates to Mycobacterium tuberculosis. Kind of assay: Antimycobacterial activity against Mycobacterium tuberculosis H37Ra incubated for 8 to 12 days by XTT reduction menadione assay. The following applies: time 8-12 day. The class given is functional.
Assay [16] concerns HepG2. Briefly: Cytotoxicity against human HepG2 cells assessed as cell growth inhibition incubated for 48 hrs by MTT assay. Type of assay: functional, cell-based. The following applies: Homo sapiens, HepG2, 48 h.
Setting [17] is: Leishmania amazonensis, IFLA/BR/67/PH8, 72 h.

Structures are written as SMILES. In brackets after ≈: the same amount, converted by molar mass.

By EC50 is commonly meant the midpoint of the concentration-response curve. For the compound `COc1ccc2nc3cc(Cl)ccc3c(Nc3sc4c(c3C#N)CCCCC4)c2c1`, the EC50 in [1] (setting [17]) came to 32300 nM.

What is called MIC is the least concentration at which growth counts as inhibited. As to `CC1(C)S[C@@H]2[C@H](NC(=O)[C@H](N)c3ccc(O)cc3)C(=O)N2[C@H]1C(=O)O` [AMOXICILLIN], the MIC in assay [2] is 0.29 µg/mL (≈ 0.794 µM); in assay [5], 0.32 µg/mL (≈ 0.876 µM); in assay [6], 0.32 µg/mL (≈ 0.876 µM); in [7], > 10 µg/mL. Further, the EC50 in [3] and in assay [4] was 150 nM in each case.

Regarding `CC1(C)S[C@@H]2[C@H](NC(=O)[C@H](N)c3ccccc3)C(=O)N2[C@H]1C(=O)O` [AMPICILLIN], the MIC in assay [2] is 0.28 µg/mL (≈ 0.801 µM); in assay [5] it was 0.88 µg/mL (≈ 2.52 µM); in assay [6], 0.28 µg/mL (≈ 0.801 µM); in [7], > 10 µg/mL. Moreover, the EC50 in assay [3] and in assay [4] was 150 nM throughout.

In general, IC50 refers to the point on the concentration scale where inhibition reaches its midpoint. As for `N#CCC(=O)Nc1sc(C(=O)Nc2ccc(Cl)cc2)c(-c2ccccc2)c1C#N`, the IC50 in assay [8] amounted to 1040 nM; in [9] it was 390 nM; in assay [10], 860 nM; in assay [11], 860 nM; in assay [12], 590 nM; in assay [13] it was 1400 nM.

Regarding `CC(C)(C)C1CCc2c(sc(NC3=NCC(CBr)S3)c2C(=O)O)C1` (stereo unspecified), in [14], the concentration for half-maximal inhibition (IC50) turned out to be 24800 nM.

As to `N#Cc1c(N)sc(C(=O)Nc2ccc(Cl)cc2)c1-c1ccccc1`, the half-maximal inhibitory concentration (IC50) in [8] worked out at 760 nM; in [9], 690 nM; in assay [10], 590 nM; in [11], 650 nM; in [12] it was 420 nM; in [13] it was 700 nM.

Take `C=CCNC(=S)Nc1sc2c(c1C(=O)OC)CCC(C(C)(C)C)C2` (stereo unspecified): the IC50 in assay [14] stood at 49700 nM.

As to `COC(=O)c1c(NC(=O)N[C@@H](C(=O)N[C@@H]2C(=O)N3[C@@H]2SC(C)(C)[C@@H]3C(=O)O)c2ccc(O)cc2)sc2c1CCCCCC2`, the MIC in assay [2] was 0.28 µg/mL (≈ 0.444 µM); in assay [5], > 10 µg/mL; in [15] it was > 50 µg/mL; in assay [6] it was 2.57 µg/mL (≈ 4.07 µM); in assay [7], > 10 µg/mL. Further, the concentration for a half-maximal effect (EC50) in assay [3] was determined as 160 nM; in assay [4], 250 nM.

Take `N#CCC(=O)Nc1sc(C(=O)Nc2ccccc2)c(-c2ccccc2)c1C#N`: the half-maximal inhibitory concentration (IC50) in assay [8] amounted to 8060 nM; in assay [9] it was 7930 nM; in assay [10], 6280 nM; in assay [11], 6590 nM; in assay [12] it was 9140 nM; in assay [13], 7590 nM.

With `COC(=O)c1ccsc1NC(=O)N[C@@H](C(=O)N[C@@H]1C(=O)N2C(C(=O)O)=C(C)CS[C@H]12)c1ccccc1`, the minimum inhibitory concentration (MIC) in [2] is 0.75 µg/mL (≈ 1.41 µM); in assay [5], > 10 µg/mL; in assay [15], > 50 µg/mL; in assay [6], 3.14 µg/mL (≈ 5.92 µM); in assay [7] it was > 10 µg/mL. Further, the EC50 is 260 nM in [3] and 210 nM in [4].

Consider `CCOC(=O)c1c(Nc2c3ccc(Cl)cc3nc3ccc(OC)cc23)sc2c1CCCC2`, for which the concentration for a half-maximal effect (EC50) in assay [1] was determined as 26600 nM; in assay [1] (setting [17]) it was 51400 nM.

With `CCOC(=O)c1c(NC(=O)CC#N)sc(C(=O)Nc2ccccc2)c1-c1ccccc1`, the half-maximal inhibitory concentration (IC50) came to 490 nM in [8]; 530 nM in assay [9]; 620 nM in assay [10]; 630 nM in assay [11]; 590 nM in assay [12]; 320 nM in assay [13].

For `CCOC(=O)c1c(Nc2c3ccc(Cl)cc3nc3ccc(OC)cc23)sc2c1CCCCC2`, in assay [1] (setting [17]), the concentration for a half-maximal effect (EC50) came to 26600 nM.

As for `N#Cc1c(/N=C/c2c3ccccc3nc3ccccc23)sc2c1CCC2`, the EC50 in assay [1] (setting [17]) is > 500000 nM.

Take `CCOC(=O)c1c(NC(=O)CC#N)sc(C(=O)Nc2ccc(Cl)cc2)c1-c1ccccc1`: the IC50 is 430 nM in assay [8]; 730 nM in assay [9]; 430 nM in assay [10]; 620 nM in assay [11]; 390 nM in assay [12]; 600 nM in [13].

With `CCOC(=O)c1c(N)sc(C(=O)Nc2ccccc2)c1-c1ccccc1`, the concentration for half-maximal inhibition (IC50) came out at 8590 nM in assay [8]; 8580 nM in assay [9]; 7420 nM in [10]; 7490 nM in assay [11]; 8090 nM in assay [12]; 6800 nM in assay [13].

Regarding `COC(=O)c1c(N)sc2c1CCC(C(C)(C)C)C2` (stereo unspecified), the IC50 in [14] was 4600 nM.

As for `COC(=O)c1ccsc1NC(=O)N[C@@H](C(=O)N[C@@H]1C(=O)N2[C@@H]1SC(C)(C)[C@@H]2C(=O)O)c1ccccc1`, the MIC in assay [2] is 0.28 µg/mL (≈ 0.526 µM); in [5], > 10 µg/mL; in [15], > 50 µg/mL; in [6], 0.55 µg/mL (≈ 1.03 µM); in assay [7] it was > 10 µg/mL. Besides, the EC50 in [3] stood at 160 nM; in assay [4], 210 nM.

On to `CCOC(=O)c1c(N)sc(C(=O)Nc2ccc(Cl)cc2)c1-c1ccccc1`, for which the concentration for half-maximal inhibition (IC50) in [8] stood at 380 nM; in assay [9], 420 nM; in [10], 390 nM; in [11], 190 nM; in [12], 260 nM; in [13], 230 nM.

Regarding `COC(=O)c1c(NC(=O)N[C@@H](C(=O)N[C@@H]2C(=O)N3[C@@H]2SC(C)(C)[C@@H]3C(=O)O)c2ccccc2)sc2c1CCCCCC2`, the minimal inhibitory concentration (MIC) in [2] was 0.28 µg/mL (≈ 0.455 µM); in assay [5] it was > 10 µg/mL; in assay [15] it was 23.3 µg/mL (≈ 37.8 µM); in [6], 2.3 µg/mL (≈ 3.74 µM); in [7], > 10 µg/mL. For the same compound, the EC50 was determined as 150 nM in [3] and 280 nM in assay [4].

Turning to `COC(=O)c1c(NC(=O)Cn2cc(CNC34CC5CC(CC(C5)C3)C4)nn2)sc2c1CCC(C)C2` (stereo unspecified), the IC50 in assay [14] came to 5400 nM.

In the case of `COC(=O)c1ccsc1NC(=O)N[C@@H](C(=O)N[C@@H]1C(=O)N2[C@@H]1SC(C)(C)[C@@H]2C(=O)O)c1ccc(O)cc1`, the minimum inhibitory concentration (MIC) in assay [2] was 0.29 µg/mL (≈ 0.529 µM); in [5], > 10 µg/mL; in assay [15] it was > 50 µg/mL; in assay [6], 0.32 µg/mL (≈ 0.583 µM); in assay [7], > 10 µg/mL. The 50% effective concentration (EC50) in assay [3] and in assay [4] was 150 nM each time.

For the compound `CC(C)(C)C1CCc2c(sc(NC(=O)C3CCCO3)c2C(=O)O)C1` (stereo unspecified), the half-maximal inhibitory concentration (IC50) in assay [14] came out at 1700 nM.

Regarding `COc1cc2c(Oc3ccc(NC(=O)C4(C(=O)Nc5ccc(F)cc5)CC4)cc3F)ccnc2cc1OCCCN1CCOCC1` [FORETINIB], the IC50 in assay [10] amounted to 900 nM.

Consider `N#Cc1c(N)sc(C(=O)Nc2ccccc2)c1-c1ccccc1`, for which the IC50 was determined as 9620 nM in [8]; 5090 nM in assay [9]; 8930 nM in [10]; 8390 nM in assay [11]; 7090 nM in assay [12]; 8280 nM in assay [13].

For `CC1=C(C(=O)O)N2C(=O)[C@@H](NC(=O)[C@H](N)c3ccccc3)[C@H]2SC1` [CEPHALEXIN ANHYDROUS], the MIC in [2] is 2.39 µg/mL (≈ 6.88 µM); in [5], 4.94 µg/mL (≈ 14.2 µM); in assay [6], 1.87 µg/mL (≈ 5.38 µM); in [7] it was > 10 µg/mL. The EC50 turned out to be 770 nM in assay [3] and 250 nM in [4].

In assay [15], `CO[C@H]1/C=C/O[C@@]2(C)Oc3c(C)c(O)c4c(O)c(c(/C=N/N5CCN(C)CC5)c(O)c4c3C2=O)NC(=O)/C(C)=C\C=C\[C@H](C)[C@H](O)[C@@H](C)[C@@H](O)[C@@H](C)[C@H](OC(C)=O)[C@@H]1C` [RIFAMPIN] had an MIC of 0.042 µg/mL (≈ 0.051 µM).

For the compound `COc1cccc2c1C(=O)c1c(O)c3c(c(O)c1C2=O)C[C@@](O)(C(=O)CO)C[C@@H]3O[C@H]1C[C@H](N)[C@H](O)[C@H](C)O1` [DOXORUBICIN], the half-inhibitory concentration (IC50) in assay [16] is 4170 nM.

`COc1ccc2nc3cc(Cl)ccc3c(Nc3sc4c(c3C(N)=O)CCCC4)c2c1`: in [1] (setting [17]), the half-maximal effective concentration (EC50) is 31800 nM.

Turning to `COc1ccc2nc3cc(Cl)ccc3c(Nc3sc4c(c3C#N)CCCCCC4)c2c1`, in [1] (setting [17]), the EC50 was found to be 69000 nM.
